The source of these data is patent publication US20200165287A1, “SALT OF (SS)-ADENOSYL METHIONINE WITH INOSITOL HEXAPHOSPHATE, AND PROCESS FOR THE PREPARATION THEREOF” (GNOSIS S.p.A., priority 2017, published 2020).

The nature of data set [1]: stability test, storage at +25° C. in a thermostatic stove. Format: physicochemical. The procedure:
Some samples of the products obtained as described in the previous examples are subjected to stability tests, storing them at +25° C., in a thermostatic stove.
The SAMe ion content analysis (FIG. 3) and the diastereomeric purity relative to the (SS) isomer (FIG. 4) are periodically repeated, and the result is compared with the starting value for the same sample, obtaining the results reported.
The data obtained with the product obtained according to EP 1896489 and two commercial samples of SAMe, 1,4-butanedisulphate salt (SD4 Test 1) and Pates salt (batch S1S1057B), are compared.

Data set [2] in a line: accelerated stability test, thermostatic stove at +55° C., 5 days. Format: physicochemical. The procedure: The product obtained as described in Example 6 (comprising SAMe and phytic acid) and a sample of SAMe inositol hexaphosphate obtained as described in Example 5 are subjected to an accelerated stability test, incubated in a thermostatic stove at +55° C., and the analyses are repeated after 5 days.
The samples are analysed for the following values: • SAMe ion content (total of all enantiomers) determined by HPLC and expressed as % by weight • enantiomeric purity, determined by HPLC and expressed as % of (SS) isomer • active ingredient content, calculated by multiplying the previous two values and expressed as % by weight of (SS)SAMe • overall purity, determined by HPLC as SAMe area/total area of chromatogram, expressed as area %. The figure comprises the values of all known degradation impurities.

Data set [3] can be described thus: Pharmacokinetic profile in the rat (SAMe plasma levels after oral administration by cannula). Format: in vivo, Sprague Dawley rats. The following applies: by cannula in water, 134 mg/kg and 95 mg/kg, equal SAMe ion dose, 0-24 h (FIG. 1, FIG. 2). The procedure: 70 Sprague Dawley rats (35 male and 35 female), aged 7-9 weeks and weighing 176-200 g, were acclimatized in a cage for two weeks before the start of the treatment, maintained at +22° C. and 55% relative humidity. The rats were fed on 4RF 21 (Mucedola) feed, and weighed before the beginning and at the end of the test. At the time of treatment, 32 animals per group (16 males and 16 females) were selected from those with the most similar weights, and assigned to the two treatments.
The product was administered by cannula, dissolved in water, at two dose levels, namely 134 mg/kg and 95 mg/kg. The rats were fasted overnight before administration and for a further two hours after administration. The two equimolar doses guaranteed an equal intake of SAMe ion.
The blood levels of SAMe were assayed by taking a sample from the tail vein at fixed intervals, at times 0 (pre-administration), 0.5, 1, 1.5, 2, 4, 8 and 24 hours after administration. The blood samples were centrifuged after addition of EDTA to separate the plasma from the cell fraction. The plasma was then analysed by HPLC according to the method reported in Wise, Fullerton J. Liq. Chromatogr. […]
The SAMe plasma concentration values are also used to determine, according to the Area Under Curve (AUC) calculation, the total quantity of active ingredient absorbed, obtaining the values set out in FIG. 2.

Regarding `C[S@@+](CC[C@H](N)C(=O)[O-])C[C@H]1O[C@@H](n2cnc3c(N)ncnc32)[C@H](O)[C@@H]1O.O=P(O)(O)O[C@H]1[C@H](OP(=O)(O)O)[C@@H](OP(=O)(O)O)[C@H](OP(=O)(O)O)[C@@H](OP(=O)(O)O)[C@H]1OP(=O)(O)O` [AT1003, SAMe inositol hexaphosphate], the “stability of (SS)SAMe isomer content / diastereomeric purity versus starting value (FIG. 4)” value in data set [1] is reported as “stable for longer”. The “Purity (% area), final value” in data set [2] (HPLC SAMe area/total area, after 5 days at +55° C.) is given as 90.0%. The “Purity (% area), starting value” in data set [2] (HPLC SAMe area/total area, starting value) was 95.98%. Besides, the “degradation by isomerization of (SS)SAMe after the stress test” value in data set [2] (after 5 days at +55° C.) is reported as “maintains an excess of the (SS)SAMe form”. Moreover, the “(SS)SAMe content (active ingredient, SAMe content x enantiomeric purity), final value” in data set [2] (after 5 days at +55° C., % by weight) was found to be 21.28%. The “(SS)SAMe content (active ingredient, SAMe content x enantiomeric purity), starting value” in data set [2] (starting value, % by weight) worked out at 26.59%.
For the molecule `C[S+](CC[C@H](N)C(=O)[O-])C[C@H]1O[C@@H](n2cnc3c(N)ncnc32)[C@H](O)[C@@H]1O.O=S(=O)(O)CCCCS(=O)(=O)O` (some centres unmarked) [SD4 Test 1, reference compound], the “stability of (SS)SAMe isomer content / diastereomeric purity versus starting value (FIG. 4)” value in data set [1] was “stable for longer”.
Consider SAMe inositol hexaphosphate [SAMe IP6], for which the “absorption (AUC) and plasma concentration of SAMe versus SAMe Pates” value in data set [3] was “better absorption and a higher plasma concentration of active ingredient”.
